Literature values in US20250152987A1 (priority 2022, published 2025).

System: SARS CoV-2 virus

## CN(C)c1ccc2nc3ccc(=[N+](C)C)cc-3sc2c1 [methylene blue]
  inactivation of SARS CoV-2 virus: inactivation
